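Step 1: Grow cells in 96-well plates. Step 2: Expose to compound for 48 hours at 5 concentrations. Step 3: Interpolate endpoints linearly; if unreached, use highest concentration. TGI denotes the concentration required for complete inhibition of growth.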
How the values were obtained:
Experiment in all cases: NCI tumour cell line growth inhibition, 48 h
UO-31 renal = system: UO-31 renal
SNB-19 CNS = system: SNB-19 CNS
MDA-MB-435 = system: MDA-MB-435
LOX IMVI melanoma = system: LOX IMVI melanoma
NCI-H460 lung = system: NCI-H460 lung
HCT-15 colon = system: HCT-15 colon
SK-OV-3 ovarian = system: SK-OV-3 ovarian
SF-295 CNS = system: SF-295 CNS
U251 CNS = system: U251 CNS
786-0 renal = system: 786-0 renal
DU-145 prostate = system: DU-145 prostate
RXF 393 renal = system: RXF 393 renal
MOLT-4 leukemia = system: MOLT-4 leukemia
NCI-H23 lung = system: NCI-H23 lung
IGROV1 ovarian = system: IGROV1 ovarian
SK-MEL-28 melanoma = system: SK-MEL-28 melanoma
OVCAR-8 ovarian = system: OVCAR-8 ovarian
MDA-N = system: MDA-N
NCI-H226 lung = system: NCI-H226 lung
SW-620 colon = system: SW-620 colon

| SMILES | TGI (UO-31 renal) | TGI (SNB-19 CNS) | TGI (MDA-MB-435) | TGI (LOX IMVI melanoma) | TGI (NCI-H460 lung) | TGI (HCT-15 colon) | TGI (SK-OV-3 ovarian) | TGI (SF-295 CNS) | TGI (U251 CNS) | TGI (786-0 renal) | TGI (DU-145 prostate) | TGI (RXF 393 renal) | TGI (MOLT-4 leukemia) | TGI (NCI-H23 lung) | TGI (IGROV1 ovarian) | TGI (SK-MEL-28 melanoma) | TGI (OVCAR-8 ovarian) | TGI (MDA-N) | TGI (NCI-H226 lung) | TGI (SW-620 colon) |
| --- | --- | --- | --- | --- | --- | --- | --- | --- | --- | --- | --- | --- | --- | --- | --- | --- | --- | --- | --- | --- |
| C=CC1(O)CCCC=C1COCc1ccccc1 (stereo not given) | > 100 µM | > 100 µM | > 100 µM | 40.7 µM | > 100 µM | > 100 µM | > 100 µM | > 100 µM | > 100 µM | > 100 µM | > 100 µM | > 100 µM | 66.7 µM | > 100 µM | 35.3 µM | > 100 µM | > 100 µM | > 100 µM | > 100 µM |  |
| CC(=O)N1c2ccccc2[C@H]2CCc3c([nH]c4ccccc34)[C@H]21 | 67.6 µM | > 100 µM | 42.5 µM | 31.8 µM | 23.3 µM | 31.6 µM | > 100 µM | 74.4 µM | 26.5 µM | 32.2 µM | 61.9 µM | 28.4 µM | 53.1 µM | 31.2 µM | 44.3 µM | 31.1 µM | > 100 µM | 49.3 µM | 36.7 µM | 37.3 µM |
| CC(=O)c1sc2c(c1O)c(=O)n(-c1ccccc1)c(=S)n2-c1ccccc1 | > 100 µM | > 100 µM | > 100 µM | > 100 µM | > 100 µM | > 100 µM |  | > 100 µM | > 100 µM | > 100 µM | > 100 µM | > 100 µM | > 100 µM | > 100 µM | > 100 µM | > 100 µM | > 100 µM | > 100 µM | > 100 µM | > 100 µM |
| COC(=O)C1(Cc2ccccc2)Cc2c(C)ccc(C)c2C1=O (stereo not given) | 38 µM | > 100 µM | 43.4 µM | 34.6 µM | > 100 µM | > 100 µM | > 100 µM | > 100 µM | > 100 µM | > 100 µM | > 100 µM | 83.1 µM | 57.5 µM | > 100 µM | > 100 µM | > 100 µM | 52.1 µM | > 100 µM | 97.3 µM | > 100 µM |
| CCN(CCCl)c1cc(CN(C)C)cc(NC(=O)c2cc(C(=O)Nc3cc(CN(C)C)cc(N(CC)CCCl)c3)n(C)n2)c1 | 7.42 µM | 1.24 µM | 1.2 µM | 0.26 µM | 0.4 µM | 10.5 µM | 3.3 µM | 2.24 µM | 0.387 µM | 0.261 µM | 9.19 µM | 2.08 µM | 0.164 µM | 3.04 µM | 0.38 µM | 2.81 µM | 1.13 µM | 2.55 µM | 4.16 µM | 0.304 µM |
| O=C(O)c1ccccc1CC(Cc1ccccc1)C(=O)O (stereo not given) | > 100 µM | > 100 µM | > 100 µM | > 100 µM | > 100 µM | > 100 µM | > 100 µM | > 100 µM | > 100 µM | > 100 µM | > 100 µM | > 100 µM | > 100 µM | > 100 µM | > 100 µM | > 100 µM | > 100 µM | > 100 µM | > 100 µM | > 100 µM |
| N#C[C@H](C(=O)c1ccccc1F)c1nc2ccccc2[nH]1 | > 100 µM | > 100 µM | > 100 µM | > 100 µM | > 100 µM | > 100 µM | > 100 µM | > 100 µM | > 100 µM | > 100 µM | > 100 µM | > 100 µM | > 100 µM | > 100 µM | > 100 µM | > 100 µM | > 100 µM | > 100 µM | > 100 µM | > 100 µM |
| Cc1cc(NS(=O)(=O)c2ccc(NC(=O)c3ccc4nc5ccccc5c(Nc5ccc(S(=O)(=O)Nc6cc(C)on6)cc5)c4c3)cc2)no1 | > 50 µM | > 50 µM | > 50 µM | > 50 µM | > 50 µM | > 50 µM | > 50 µM | > 50 µM | > 50 µM | > 50 µM | > 50 µM | > 50 µM | > 50 µM | > 50 µM | > 50 µM | > 50 µM | > 50 µM | > 50 µM | > 50 µM | > 50 µM |
| O=S(=O)(/N=C(\NO)Nc1ccc(Cl)cc1)c1cc(S(=O)(=O)c2ccccc2)cs1 | 27.6 µM | 42.6 µM | 29.9 µM | 39 µM | 40.7 µM | 44.3 µM |  | 32.7 µM | 30.6 µM | 30 µM | 33 µM | 31 µM | 39.8 µM | 41.9 µM | 44.9 µM | 41.2 µM | 36.7 µM | 34.8 µM | 51.6 µM | 49.2 µM |
| O=C1c2ccccc2/C=C\C(c2ccccc2)=N/N1c1ccccc1Cl | 98.8 µM | > 100 µM | 16.8 µM | > 100 µM | > 100 µM | > 100 µM |  | > 100 µM | 63.5 µM | > 100 µM | > 100 µM | 47.7 µM | 77.1 µM | 93.6 µM | > 100 µM | > 100 µM | > 100 µM | 14.7 µM | > 100 µM | > 100 µM |
| COC(=O)[C@]1(C)[C@H]2C[C@H]3O[C@H]4[C@H](O)[C@@H](O)OC(CC(O)C(C5=CC(=O)OC5)C(C5=CC(=O)OC5)C(O)CC56CCCCC7[C@@H](C)[C@H](C[C@H]8[C@](C)(C(=O)OC)[C@H](O)CC[C@]78C)O[C@H]([C@@H](O)[C@H](O)O5)[C@H]6O)(CCCCC([C@@H]3C)[C@]2(C)CC[C@@H]1O)[C@H]4O (stereo not given in full) | 0.442 µM | 1.12 µM | 1.1 µM | 1.17 µM | 0.014 µM | 1.11 µM | 0.735 µM |  | 1.09 µM | 0.225 µM | 0.219 µM | 0.264 µM | 0.0883 µM | 0.318 µM | 1.2 µM | 10.4 µM | 1.2 µM | 0.786 µM | 5.02 µM | 1.78 µM |

Source: PubChem BioAssay (NCI)
